Test results: article PMC5624964, “ORP5 and ORP8 bind phosphatidylinositol-4, 5-biphosphate (PtdIns(4,5)P2) and regulate its level at the plasma membrane” (Nature Communications, 2017)
Read-outs that look alike come from different tables or passages of the source.

Experiments:
Test in all cases: isothermal titration calorimetry
Format in all cases: binding
[1] = target: T1, ORP5 ORD (Homo sapiens, UniProt Q9H0X9)
T1 construct: gene OSBPL5; ORD domain 364-746 of ORP5A, His6-ubiquitin tag removed by DUB without extra N-terminal residues, E. coli
T1 sequence (Q9H0X9 364-746): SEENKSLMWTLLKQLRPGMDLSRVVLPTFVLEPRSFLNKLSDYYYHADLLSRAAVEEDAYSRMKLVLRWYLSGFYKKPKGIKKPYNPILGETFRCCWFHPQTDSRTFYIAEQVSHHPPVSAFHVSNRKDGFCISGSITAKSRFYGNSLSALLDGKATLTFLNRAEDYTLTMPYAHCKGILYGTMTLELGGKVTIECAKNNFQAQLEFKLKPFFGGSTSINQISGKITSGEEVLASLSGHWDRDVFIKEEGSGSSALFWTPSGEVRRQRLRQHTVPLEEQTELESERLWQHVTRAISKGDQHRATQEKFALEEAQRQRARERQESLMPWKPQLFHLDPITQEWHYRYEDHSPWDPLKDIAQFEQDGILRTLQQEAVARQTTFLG
Description: isothermal titration calorimetry on ORP5 ORD

[2] = target: T2, ORP8 ORD (Homo sapiens, UniProt Q9BZF1)
T2 construct: gene OSBPL8; ORD domain 400-778 of ORP8L, His6-ubiquitin tag removed by DUB without extra N-terminal residues, E. coli
T2 sequence (Q9BZF1 400-778): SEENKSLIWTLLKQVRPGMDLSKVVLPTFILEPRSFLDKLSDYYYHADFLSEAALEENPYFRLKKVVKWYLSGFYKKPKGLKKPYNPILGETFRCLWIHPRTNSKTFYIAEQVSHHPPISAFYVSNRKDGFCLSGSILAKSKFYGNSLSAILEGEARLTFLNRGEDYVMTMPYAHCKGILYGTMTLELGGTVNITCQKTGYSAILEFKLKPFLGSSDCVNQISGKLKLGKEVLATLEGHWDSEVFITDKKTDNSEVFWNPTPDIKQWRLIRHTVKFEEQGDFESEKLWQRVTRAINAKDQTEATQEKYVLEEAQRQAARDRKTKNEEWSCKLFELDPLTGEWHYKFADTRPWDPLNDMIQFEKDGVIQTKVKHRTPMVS
Description: isothermal titration calorimetry on ORP8 ORD

[3] = target: T3, ORP8 PH (Homo sapiens, UniProt Q9BZF1)
T3 construct: gene OSBPL8; PH domain 149-265 of ORP8L, synthetic gene, N-terminal MGSSGSSG and C-terminal RSGPSSGLEEF linkers, GST tag cleaved by thrombin, E. coli
T3 sequence (Q9BZF1 149-265): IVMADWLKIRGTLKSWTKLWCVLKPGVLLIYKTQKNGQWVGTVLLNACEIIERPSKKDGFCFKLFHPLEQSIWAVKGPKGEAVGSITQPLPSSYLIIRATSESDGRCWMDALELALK
Description: isothermal titration calorimetry on ORP8 PH

[4] = target: T4, ORP5 PH (Homo sapiens, UniProt Q9H0X9)
T4 construct: gene OSBPL5; PH domain 127-243 of ORP5A, synthetic gene, N-terminal MGSSGSSG and C-terminal RSGPSSGLEEF linkers, GST tag cleaved by thrombin, E. coli
T4 sequence (Q9H0X9 127-243): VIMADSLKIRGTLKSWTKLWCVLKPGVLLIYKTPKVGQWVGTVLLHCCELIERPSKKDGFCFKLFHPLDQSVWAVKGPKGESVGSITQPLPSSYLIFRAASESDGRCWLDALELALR
Description: isothermal titration calorimetry on ORP5 PH

[5] = water-soluble diC8 lipid, 25 °C, 50 mM Tris pH 8.0, 100 mM NaCl

Compound	Kd [1]	Kd [2]	Kd [3]	Kd [4, 5]	Kd [1, 5]	Kd [2, 5]	Kd [4]
CCCCCCCC(=O)OC[C@H](COP(=O)(O)O[C@H]1[C@H](O)[C@@H](O)[C@H](OP(=O)(O)O)[C@@H](OP(=O)(O)O)[C@H]1O)OC(=O)CCCCCCC [PtdIns(3,4)P2]		2.5 ± 0.6 µM	2.9 ± 0.1 µM	16.3 ± 0.4 µM	0.8 ± 0.8 µM		
CCCCCCCC(=O)OC[C@H](COP(=O)(O)O[C@H]1[C@H](O)[C@@H](OP(=O)(O)O)[C@H](OP(=O)(O)O)[C@@H](OP(=O)(O)O)[C@H]1O)OC(=O)CCCCCCC [PtdIns(3,4,5)P3]			11.8 ± 3.2 µM	5.3 ± 2.4 µM	1.1 ± 0.3 µM		
CCCCCCCC(=O)OC[C@H](COP(=O)(O)O[C@@H]1[C@H](O)[C@H](O)[C@@H](OP(=O)(O)O)[C@H](OP(=O)(O)O)[C@H]1O)OC(=O)CCCCCCC [PtdIns(4,5)P2]	6.7 ± 1.5 µM	5.3 ± 0.4 µM	5.5 ± 1.2 µM				7.3 ± 0.5 µM

The remaining lines, values ahead:

Kd [1]	Kd [2]	Kd [3]	Kd [4, 5]	Kd [1, 5]	Kd [2, 5]	Kd [4]	Compound
9 ± 2.7 µM	1.7 ± 0.8 µM						CCCCCCCC(=O)OC[C@H](COP(=O)(O)O[C@@H]1[C@H](O)[C@H](OP(=O)(O)O)[C@@H](O)[C@H](O)[C@H]1O)OC(=O)CCCCCCC [PtdIns(3)P]
				6.7 ± 3.3 µM	2.3 ± 0.3 µM		CCCCCCCC(=O)OC[C@H](COP(=O)(O)O[C@H]1[C@H](O)[C@@H](O)[C@H](OP(=O)(O)O)[C@@H](O)[C@H]1O)OC(=O)CCCCCCC [PtdIns(4)P]
	5.9 ± 4.1 µM						CCCCCCCC(=O)OC[C@H](COP(=O)(O)O[C@H]1[C@H](O)[C@@H](OP(=O)(O)O)[C@H](O)[C@@H](O)[C@H]1O)OC(=O)CCCCCCC [PtdIns(5)P]
